Holding throughout (assay type): cell-based
Assay [1] relates to primary human tumors (NSCLC, esophageal, gastric). The assay is described as follows: TCA: Compound B-1 with cisplatin, primary tumors. Also on record: Average Bliss score: scale not given here. On the procedure: (§1) In both studies, cell viability was assessed after 6 days in culture. Statistical analysis of the combination matrix was performed to assess whether synergy, additivity, or antagonism of the combination treatments were observed.
(§2) Materials: Primary patient samples (See Tables 16 and 17, below) were excised from mice when they reached 500 mg to 1000 mg in size and processed immediately, or after overnight shipment. Tumors were serially passaged by subcutaneous implantation of 50 mg to 150 mg fragments into the flanks of immunocompromised (nude) mice. Tumors were used within the first 5 or 7 passages.
(§3) Tumor Chemosensitivity Assay (TCA): Primary tumor samples were grown and serially passaged in immunocompromised mice. Tumors were mechanically dissociated into small fragments (1 mm to 2 mm) with scalpels in phosphate buffered saline (PBS or RPMI) and centrifuged at 200×g for 5 minutes at room temperature in 50 mL centrifuge tubes. Samples were resuspended in 10 mL of cell dissociation reagent and enzymatically digested with mechanical agitation for 1 to 3 hours at 37° C., 5% CO2 to a single cell suspension. Ten mL of complete RPMI-1640 media was added to the cell mixture and pipetted up and down 4 to 5 times. The mixture was then passed through a 70 μm or 100 μm mesh strainer to remove undigested tumor. The filtrate was then centrifuged 200×g for 5 minutes at room temperature and resuspended in 20 mL complete RPMI-1640. This cell suspension was slowly layered onto 20 mL of room temperature Histopaque and centrifuged at 400×g for 15 minutes at room temperature without a brake. The interface was transferred to a new 50 mL centrifuge tube and 15 mL of complete RPMI-1640 was added. This suspension was centrifuged at 200×g at room temperature, and the resulting pellet was resuspended in 10 mL of complete PC-1 media, except for pancreatic tumors in which case Pancreatic Medium was used. Cells were diluted in Trypan blue, and viable cells that excluded the dye were counted. Only the larger, tumor cells were included in the cell count. Cells were diluted in complete PC-1 or Pancreatic media, as appropriate for the cells, and were plated at 15,000 to 20,000 cells per well in 100-135 μL in ultra-low attachment U-bottom plates.
(§4) Compound Addition: For these studies, a 10 mM stock of the DNA-PK inhibitor (Compound B-1 or Compound B-2) was made in DMSO and used to add to cells from most tumors with HP D300 Digital Dispenser (Tecan US, Morrisville, NC, USA), or diluted into the appropriate media (PC-1 or pancreatic media) as a 5-10× stock and added to cells (OVX001 and ENX001, 005). PC-1, pancreatic media, and chemotherapeutics were also added so that final well volume was 150 μL. Doxorubicin was made as DMSO stock of 1 or 10 mM and added to cells for most tumors with HP D300 Digital Dispenser, or diluted into PC-1 as 5-10× stock and added to cells (OVX001 and ENX001, 005). Cisplatin (cis-diammine platinum(II), dichloride) was prepared fresh to 10 mM in warm (60° C.) distilled water and diluted in PC-1 as a 5-10× stock. […] Different starting concentrations, dose ranges, and number of doses were used for each experiment based on the response data available at the time.
For bleomycin experiments, combinations with Compound B-1 at all concentrations were run in triplicate. A 6×3 matrix was designed on one plate, consisting of a 2-point concentration range of 0.73 μM and 2.2 μM Compound B-1 plus no treatment control, in 3 columns each of 6 wells. Bleomycin (plus ‘no treatment’ control) was added to 9 wells in rows of this plate. Similar 6×3 matrices were set up for additional agents with different starting concentrations for compound dilutions. For cisplatin experiments the starting concentration was 30 μM which was diluted 1:3. […] For doxorubicin hydrochloride experiments the starting concentration was 5 μM doxorubicin which was diluted 1:3. For gemcitabine experiments the starting concentration was 5 μM gemcitabine which was diluted 1:3. […]

For assay [2], the system named is primary human ovarian tumors (dissociated cells). The assay is described as follows: Tumor Chemosensitivity Assay (TCA): Compound B-2 with doxorubicin, primary ovarian tumors, viability after 6 days, Bliss. Further details: Average Bliss score: scale not given here. On the procedure: (§5) Specifically, one study described the combination of Compound B-2 and doxorubicin hydrochloride. In this study, a panel of primary human ovarian and endometrial tumors was dissociated and treated with Compound B-2 to determine the effectiveness of this selective DNA-PK inhibitor to enhance the activity of doxorubicin.
as §1, §2, §3, §4
For doxorubicin hydrochloride experiments, combinations with Compound B-2 at all concentrations were run in triplicate. A 6×3 matrix was designed on each plate: 0.73 μM and 2.2 μM Compound B-2, or 0.37 μM and 4.4 μM Compound B-2 on some tumors where additional cells were available, plus no treatment control, in 3 columns each of 6 wells. Doxorubicin hydrochloride (plus ‘no treatment’ control) was added to 9 wells in rows of this plate. […]

Assay [3] has as its system primary human endometrial tumors (dissociated cells). The assay is described as follows: Tumor Chemosensitivity Assay (TCA): Compound B-2 with doxorubicin, primary endometrial tumors, viability after 6 days, Bliss. On the procedure:
as §5, §1, §2
Tumor Chemosensitivity Assay (TCA): Primary tumor samples were grown and serially passaged in immunocompromised mice. Tumors were mechanically dissociated into small fragments (1 mm to 2 mm) with scalpels in phosphate buffered saline (PBS or RPMI) and centrifuged at 200×g for 5 minutes at room temperature in 50 mL centrifuge tubes. […] Cells were diluted in Trypan blue, and viable cells that excluded the dye were counted. […]

With `CNC(=O)c1ccnc2c([C@H](C)CNc3cc(-c4cnc(C)nc4)ncn3)cccc12` [Compound B-1], the “tumors that showed additivity or synergy” value in assay [1] (nine of 10 tumors) worked out at 90%. The “tumors that demonstrated antagonism” value in assay [1] (one of 10 tumors) is given as 10%. Besides, the “Average Bliss score” value in assay [1] (tumor ESX005, Esophageal) is reported as 2; in assay [1] (tumor ESX008, Esophageal), 1; in assay [1] (tumor GAX001, Gastric), 14; in assay [1] (tumor GAX007, Gastric) it was 2; in assay [1] (tumor GAX027, Gastric), −3; in assay [1] (tumor OD33117, Lung (NSCLC)), 6. The “Average Bliss score” value is listed as −1 in assay [1] (tumor OD33966, Lung (NSCLC)); 6 in assay [1] (tumor OD36088, Lung (NSCLC)); −3 in assay [1] (tumor TS110310, Lung (NSCLC)); −6 in assay [1] (tumor YAS111611, Lung (NSCLC)). Also, the Synergy/Additivity/Antagonism result in assay [1] (tumor ESX005, Esophageal) is “Additive (Values between 5 and −5 are considered additive)”; in assay [1] (tumor ESX008, Esophageal) it was “Additive (Values between 5 and −5 are considered additive)”; in assay [1] (tumor GAX001, Gastric), “Strongly Synergistic (greater than 10 are considered strongly synergistic)”; in assay [1] (tumor GAX007, Gastric) it was “Additive (Values between 5 and −5 are considered additive)”; in assay [1] (tumor GAX027, Gastric), “Additive (Values between 5 and −5 are considered additive)”; in assay [1] (tumor OD33117, Lung (NSCLC)), “Synergistic (greater than 5 are considered synergistic)”. In addition, the Synergy/Additivity/Antagonism result in assay [1] (tumor OD33966, Lung (NSCLC)) is “Additive (Values between 5 and −5 are considered additive)”; in assay [1] (tumor OD36088, Lung (NSCLC)), “Synergistic (greater than 5 are considered synergistic)”; in assay [1] (tumor TS110310, Lung (NSCLC)) it was “Additive (Values between 5 and −5 are considered additive)”; in assay [1] (tumor YAS111611, Lung (NSCLC)), “Antagonistic (less than −5 are considered antagonistic)”.

`[2H]c1nc(C)nc([2H])c1-c1cc(NC[C@@H](C)c2cccc3c(C(=O)NC)ccnc23)ncn1` [Compound B-2]: the “tumors that showed synergy or additivity” value in assay [2] (11 ovarian tumors) is reported as 100%. For the same molecule, the “tumors that showed strong synergy” value in assay [2] (four of 11 ovarian tumors) came out at 36%. For the same molecule, the “Average Bliss score” value in assay [2] (tumor CTG-0252 (Ovarian)) was determined as 14; in assay [2] (tumor CTG-0253 (Ovarian)) it was 6; in assay [2] (tumor CTG-0258 (Ovarian)), 9; in assay [2] (tumor CTG-0486 (Ovarian)), 5; in assay [2] (tumor CTG-0791 (Ovarian)) it was 14; in assay [2] (tumor CTG-0947 (Ovarian)), 10. Moreover, the “Average Bliss score” value in assay [2] (tumor CTG-0992 (Ovarian)) is 8; in assay [2] (tumor CTG-1166 (Ovarian)), 8; in assay [2] (tumor CTG-1301 (Ovarian)) it was 8; in assay [2] (tumor CTG-1423 (Ovarian)) it was 12; in assay [2] (tumor OVX001 (Ovarian)) it was 11; in assay [3] (tumor ENX001 (Endometrial)), 6. In addition, the “Average Bliss score” value in assay [3] (tumor ENX005 (Endometrial)) was 21. For the same molecule, the Synergy/Additivity/Antagonism result was “Strongly Synergistic (greater than 10 are considered strongly synergistic)” in assay [2] (tumor CTG-0252 (Ovarian)); “Synergistic (greater than 5 are considered synergistic)” in assay [2] (tumor CTG-0253 (Ovarian)); “Synergistic (greater than 5 are considered synergistic)” in assay [2] (tumor CTG-0258 (Ovarian)); “Additive (Values between 5 and −5 are considered additive)” in assay [2] (tumor CTG-0486 (Ovarian)); “Strongly Synergistic (greater than 10 are considered strongly synergistic)” in assay [2] (tumor CTG-0791 (Ovarian)); “Synergistic (greater than 5 are considered synergistic)” in assay [2] (tumor CTG-0947 (Ovarian)). Besides, the Synergy/Additivity/Antagonism entry is “Synergistic (greater than 5 are considered synergistic)” in assay [2] (tumor CTG-0992 (Ovarian)); “Synergistic (greater than 5 are considered synergistic)” in assay [2] (tumor CTG-1166 (Ovarian)); “Synergistic (greater than 5 are considered synergistic)” in assay [2] (tumor CTG-1301 (Ovarian)); “Strongly Synergistic (greater than 10 are considered strongly synergistic)” in assay [2] (tumor CTG-1423 (Ovarian)); “Strongly Synergistic (greater than 10 are considered strongly synergistic)” in assay [2] (tumor OVX001 (Ovarian)).

The values above are taken from patent US11980633B2, “Method for treating cancer using a combination of DNA-damaging agents and DNA-PK inhibitors” (Vertex Pharmaceuticals Incorporated, priority 2016, dated 2024).
